Experimental data published in ChEMBL document CHEMBL1268836, “Rational design of novel pyrrolidine derivatives as orally active neurokinin-3 receptor antagonists” (Bioorg Med Chem Lett, 2010).
≈ marks a conversion by molar mass, not a printed value. Calls of active or inactive are those of the source. The rule behind the calls is not given here.

Experiments:
[1] = Aqueous solubility of the compound; type: physicochemical
[2] = Lipophilicity, log D of the compound; type: physicochemical; conditions: octanol/water
[3] = tested on: Gerbillinae; assay: Antipsychotic activity gerbils assessed as reversal of senktide-induced locomotor activity at 30 mg/kg, po administered before senktide challenge; type: functional, organism-based; set-up: dose 30 mg/kg
[4] = Ratio of drug level in brain to plasma in gerbils at 30 mg/kg, po; type: ADME, organism-based; set-up: dose 30 mg/kg, route oral; conditions: gerbillinae, read-out: BPR
[5] = tested on: Gerbillinae; assay: Antipsychotic activity gerbils assessed as reversal of senktide-induced locomotor activity at 100 mg/kg, po administered before senktide challenge; type: functional, organism-based; set-up: dose 100 mg/kg
[6] = target: Substance-P receptor (Homo sapiens, UniProt P25103); assay: Displacement of [3H]substance P from human neurokinin NK1 receptor expressed in CHO cell; type: cell-based
Chain of Substance-P receptor (P25103 whole entry): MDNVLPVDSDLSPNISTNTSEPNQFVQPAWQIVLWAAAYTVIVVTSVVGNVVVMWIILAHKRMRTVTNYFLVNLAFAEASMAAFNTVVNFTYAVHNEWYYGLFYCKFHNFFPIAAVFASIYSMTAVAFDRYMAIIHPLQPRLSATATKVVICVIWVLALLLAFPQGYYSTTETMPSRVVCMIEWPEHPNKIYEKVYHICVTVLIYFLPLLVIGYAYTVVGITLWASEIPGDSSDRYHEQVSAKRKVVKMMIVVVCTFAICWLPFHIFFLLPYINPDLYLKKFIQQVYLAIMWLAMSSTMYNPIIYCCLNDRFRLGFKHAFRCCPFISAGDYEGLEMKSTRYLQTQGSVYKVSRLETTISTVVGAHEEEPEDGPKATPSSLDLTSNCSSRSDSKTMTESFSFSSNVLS

[7] = target: T1, Neuromedin-K receptor (Homo sapiens, UniProt P29371); assay: Displacement of [3H]SR142801 from human neurokinin NK3 receptor expressed in HEK293-EBNA cells; type: cell-based
T1 sequence (P29371 whole entry): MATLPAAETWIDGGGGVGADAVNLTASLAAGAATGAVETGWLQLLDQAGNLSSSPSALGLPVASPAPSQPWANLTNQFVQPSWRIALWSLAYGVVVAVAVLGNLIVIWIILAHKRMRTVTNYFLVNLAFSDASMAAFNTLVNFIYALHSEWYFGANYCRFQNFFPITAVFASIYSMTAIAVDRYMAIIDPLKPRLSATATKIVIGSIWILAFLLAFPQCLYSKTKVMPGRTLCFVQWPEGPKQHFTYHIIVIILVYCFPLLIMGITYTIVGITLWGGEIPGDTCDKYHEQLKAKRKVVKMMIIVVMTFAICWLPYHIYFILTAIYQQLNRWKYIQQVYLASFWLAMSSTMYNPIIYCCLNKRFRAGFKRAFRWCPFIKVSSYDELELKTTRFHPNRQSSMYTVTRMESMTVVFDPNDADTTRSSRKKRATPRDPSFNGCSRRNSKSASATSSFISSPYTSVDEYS

CN(C)CCN1CCN(C(=O)N2C[C@H](c3ccc(Cl)c(Cl)c3)[C@@H](N(C)Cc3ccc(C(F)(F)F)c(F)c3)C2)CC1
solubility [1]: 495 µg/mL (≈ 819 µM)
logD [2]: 2.9
Activity [3]: Active
Kp [4]: 1.6

CC(=O)N(C)C1(c2ccccc2)CCN(CCC[C@]2(c3ccc(Cl)c(Cl)c3)CCCN(C(=O)c3ccccc3)C2)CC1
Activity [5]: Active

CN(C(=O)C(C)(C)c1cc(C(F)(F)F)cc(C(F)(F)F)c1)[C@H]1CN(C(=O)N(CCO)CCO)C[C@@H]1c1ccc(F)cc1 (racemic)
Ki [6]: 0.0011 µM
Ki ([7]; read-out: Ki): 0.192 µM

CC(=O)N1CCN(C(=O)N2C[C@H](c3ccc(F)cc3)[C@@H](N(C)C(=O)C(C)(C)c3cc(C(F)(F)F)cc(C(F)(F)F)c3)C2)CC1 (racemic)
Ki [6]: 0.0014 µM
Ki ([7]; read-out: Ki): 0.37 µM

CN(C(=O)C(C)(C)c1cc(C(F)(F)F)cc(C(F)(F)F)c1)[C@H]1CN(C(=O)N2CCN(S(C)(=O)=O)CC2)C[C@@H]1c1ccc(F)cc1 (racemic)
Ki [6]: 0.0021 µM
Ki ([7]; read-out: Ki): 0.165 µM

CN(C(=O)C(C)(C)c1cc(C(F)(F)F)cc(C(F)(F)F)c1)[C@H]1CN(C(=O)N2CCN(S(C)(=O)=O)CC2)C[C@@H]1c1ccccc1 (racemic)
Ki ([7]; read-out: Ki): 0.1 µM

CN(C(=O)Cc1cc(C(F)(F)F)cc(C(F)(F)F)c1)[C@H]1CN(C(=O)N2CCN(S(C)(=O)=O)CC2)C[C@@H]1c1ccccc1 (racemic)
Ki ([7]; hek293-ebna): Not Active

CN(CC(C)(C)c1cc(C(F)(F)F)cc(C(F)(F)F)c1)[C@H]1CN(C(=O)N2CCN(S(C)(=O)=O)CC2)C[C@@H]1c1ccccc1 (racemic)
Ki ([7]; hek293-ebna): Not Active

CN(C(=O)C(C)(C)c1cc(C(F)(F)F)cc(C(F)(F)F)c1)[C@H]1CNC[C@@H]1c1ccc(F)cc1 (racemic)
Ki [6]: 0.0009 µM
Ki ([7]; hek293-ebna): Not Active

CN(C(=O)C(C)(C)c1cc(C(F)(F)F)cc(C(F)(F)F)c1)[C@H]1CN(C(=O)NCCO)C[C@@H]1c1ccc(F)cc1 (racemic)
Ki [6]: 0.0006 µM
Ki ([7]; read-out: Ki): 0.298 µM

CN(C(=O)C(C)(C)c1cc(C(F)(F)F)cc(C(F)(F)F)c1)[C@H]1CN(Cc2ccccc2)C[C@@H]1c1ccc(F)cc1 (racemic)
Ki ([7]; hek293-ebna): Not Active

CN(CCc1cc(C(F)(F)F)cc(C(F)(F)F)c1)[C@H]1CN(C(=O)N2CCN(S(C)(=O)=O)CC2)C[C@@H]1c1ccccc1 (racemic)
Ki ([7]; hek293-ebna): Not Active

CN(C(=O)c1cc(C(F)(F)F)cc(C(F)(F)F)c1)[C@H]1CN(C(=O)N2CCN(S(C)(=O)=O)CC2)C[C@@H]1c1ccccc1 (racemic)
Ki ([7]; hek293-ebna): Not Active

CS(=O)(=O)N1CCN(C(=O)N2C[C@H](NC(=O)c3cc(C(F)(F)F)cc(C(F)(F)F)c3)[C@@H](c3ccccc3)C2)CC1 (racemic)
Ki ([7]; hek293-ebna): Not Active

CN(Cc1cc(C(F)(F)F)cc(C(F)(F)F)c1)[C@H]1CN(C(=O)N2CCN(S(C)(=O)=O)CC2)C[C@@H]1c1ccccc1 (racemic)
Ki ([7]; read-out: Ki): 1.3 µM

CN(Cc1ccc(C(F)(F)F)c(F)c1)[C@H]1CN(C(=O)N2CCN(S(C)(=O)=O)CC2)C[C@@H]1c1ccc(Cl)c(Cl)c1 (racemic)
solubility [1]: < 1 µg/mL
logD [2]: > 4
